Test results reported in publication PMC12615753, “Glutathione as a taste modulator: molecular mechanisms of interaction with umami and sweet taste receptors” (Food Chemistry: Molecular Sciences, 2025).

How the values were obtained:
[1] = target: T1, hTAS1R2/rTAS1R3(Mut2) (UniProt Q8TE23+Q923K1, L72W/P67S/S282A/Y281H); assay: Calcium assay, mutated rTAS1R3 co-expressed with hTAS1R2; assay type: cell-based, human, rat
T1 construct: The cDNA coding region of rTAS1R3 was synthesized with optimized-codon usage for human expression; expressed in transfected cells
T1 sequence (Q923K1 21-858 P67S/L72W/Y281H/S282A, one chain of several): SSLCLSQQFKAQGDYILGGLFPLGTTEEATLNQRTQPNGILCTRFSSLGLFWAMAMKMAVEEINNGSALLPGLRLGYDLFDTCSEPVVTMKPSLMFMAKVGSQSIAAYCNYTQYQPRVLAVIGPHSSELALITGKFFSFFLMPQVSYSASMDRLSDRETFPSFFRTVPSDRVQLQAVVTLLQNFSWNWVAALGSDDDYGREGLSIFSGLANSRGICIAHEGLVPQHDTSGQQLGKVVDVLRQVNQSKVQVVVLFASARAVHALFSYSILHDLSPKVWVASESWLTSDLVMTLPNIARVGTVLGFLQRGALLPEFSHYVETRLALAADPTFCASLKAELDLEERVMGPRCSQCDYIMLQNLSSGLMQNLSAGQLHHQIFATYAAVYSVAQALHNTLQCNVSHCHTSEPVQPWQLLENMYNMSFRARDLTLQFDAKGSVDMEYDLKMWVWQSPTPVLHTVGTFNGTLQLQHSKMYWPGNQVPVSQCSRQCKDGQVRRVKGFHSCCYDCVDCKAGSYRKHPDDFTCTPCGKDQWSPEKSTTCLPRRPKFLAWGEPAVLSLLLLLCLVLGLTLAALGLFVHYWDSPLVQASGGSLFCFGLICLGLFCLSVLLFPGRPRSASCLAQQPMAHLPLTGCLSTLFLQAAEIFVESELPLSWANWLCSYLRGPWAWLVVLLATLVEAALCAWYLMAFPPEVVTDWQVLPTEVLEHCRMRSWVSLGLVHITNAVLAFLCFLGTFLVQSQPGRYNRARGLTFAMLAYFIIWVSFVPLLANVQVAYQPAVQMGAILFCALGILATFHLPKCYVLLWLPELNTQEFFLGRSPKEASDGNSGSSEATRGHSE

[2] = target: T2, hTAS1R2/hTAS1R3 (Homo sapiens, UniProt Q7RTX0+Q8TE23); assay: Calcium assay in transfected HEK293T/17 cells, sweet taste receptor; assay type: cell-based; conditions: for EC50: agonist alone, Fig. 2
T2 construct: expressed in transfected cells
T2 sequence (Q8TE23 20-839): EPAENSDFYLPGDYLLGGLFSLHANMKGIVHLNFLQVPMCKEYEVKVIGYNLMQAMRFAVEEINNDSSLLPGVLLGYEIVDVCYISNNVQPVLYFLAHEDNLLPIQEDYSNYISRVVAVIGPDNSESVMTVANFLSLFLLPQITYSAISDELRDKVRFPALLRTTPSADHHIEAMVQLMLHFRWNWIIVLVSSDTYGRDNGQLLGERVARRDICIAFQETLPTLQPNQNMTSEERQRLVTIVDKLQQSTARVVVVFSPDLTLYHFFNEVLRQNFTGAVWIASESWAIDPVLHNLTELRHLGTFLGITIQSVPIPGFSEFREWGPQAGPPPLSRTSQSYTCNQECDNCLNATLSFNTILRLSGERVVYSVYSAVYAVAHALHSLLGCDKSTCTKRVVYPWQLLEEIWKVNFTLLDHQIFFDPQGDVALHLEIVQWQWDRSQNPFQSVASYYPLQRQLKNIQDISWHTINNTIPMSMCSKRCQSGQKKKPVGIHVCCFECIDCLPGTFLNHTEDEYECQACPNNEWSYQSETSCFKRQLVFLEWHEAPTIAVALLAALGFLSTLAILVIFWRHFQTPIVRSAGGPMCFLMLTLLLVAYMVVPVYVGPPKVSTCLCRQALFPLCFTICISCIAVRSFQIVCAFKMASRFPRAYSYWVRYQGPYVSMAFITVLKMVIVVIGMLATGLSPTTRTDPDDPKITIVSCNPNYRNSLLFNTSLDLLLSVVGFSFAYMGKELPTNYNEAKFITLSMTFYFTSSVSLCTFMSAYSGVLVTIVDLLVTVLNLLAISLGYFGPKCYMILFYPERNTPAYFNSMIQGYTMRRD
T2 sequence (Q7RTX0 21-852): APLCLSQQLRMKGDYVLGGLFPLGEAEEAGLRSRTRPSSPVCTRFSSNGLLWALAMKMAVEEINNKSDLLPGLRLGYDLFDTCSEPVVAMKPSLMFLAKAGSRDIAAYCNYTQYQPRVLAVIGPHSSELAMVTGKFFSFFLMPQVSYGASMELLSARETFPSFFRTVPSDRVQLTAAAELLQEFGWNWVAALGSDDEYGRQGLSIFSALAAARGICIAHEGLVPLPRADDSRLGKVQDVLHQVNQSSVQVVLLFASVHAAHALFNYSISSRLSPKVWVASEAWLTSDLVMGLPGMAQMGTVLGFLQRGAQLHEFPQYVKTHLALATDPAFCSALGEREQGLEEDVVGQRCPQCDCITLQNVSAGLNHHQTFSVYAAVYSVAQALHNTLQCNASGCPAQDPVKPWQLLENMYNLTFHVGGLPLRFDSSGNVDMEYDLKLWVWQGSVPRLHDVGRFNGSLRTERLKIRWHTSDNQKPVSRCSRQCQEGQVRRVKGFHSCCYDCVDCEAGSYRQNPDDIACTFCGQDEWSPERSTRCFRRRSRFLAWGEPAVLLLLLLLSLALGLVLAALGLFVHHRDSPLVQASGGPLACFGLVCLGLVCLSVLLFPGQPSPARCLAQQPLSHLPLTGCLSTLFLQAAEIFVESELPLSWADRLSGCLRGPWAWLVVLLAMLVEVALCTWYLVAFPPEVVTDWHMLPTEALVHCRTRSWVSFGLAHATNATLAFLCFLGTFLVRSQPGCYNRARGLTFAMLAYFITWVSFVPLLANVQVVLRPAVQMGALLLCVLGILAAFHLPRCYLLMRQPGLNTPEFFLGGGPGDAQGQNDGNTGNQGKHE
Protocol: HEK293T/17 cells (ATCC CRL-11268) were seeded into clear bottom black 96-well plates coated with poly-D-lysine at a density of 32500 cells/well in 100 μL of DMEM containing 4.5 g/L glucose and supplemented with penicillin/streptomycin, 2 mM GlutaMAX and 10 % dialyzed fetal bovine serum. The plates were incubated for 24 h at 37 °C and 7.3 % CO2 in a humidified atmosphere. After incubation, using Fugene® 4 K (0.46 μL/well, Promega, Illkirch, France), the cells were transiently transfected with pcDNA3-hTAS1R1-WT (60 ng/well) or TAS1R1 mutants, pcDNA4-rTAS1R3 (60 ng/well), pcDNA3-Gα15i2 (10 ng/well), and pGP-CMV-GCaMP6s (Addgene #40753; 10 ng/well) as a genetically encoded calcium indicator. Twenty-four hours after transfection, the HEK293T/17 cells were rinsed with 100 μL of C1 buffer (130 mM NaCl, 5 mM KCl, 10 mM HEPES, 2 mM CaCl2, and 5 mM sodium pyruvate, pH 7.4). For each molecule tested, a semi-logarithmic concentration range was created consisting of seven increasing concentrations and a negative control (zero dose) made of buffer C1. […] After 20 s of basal fluorescence calcium measurement, the cells were stimulated via automatic injection of a range of compounds in eight wells, and the signal emission was recorded for an additional 70 s, via a FlexStation 3® fluorometric microplate reader (Molecular Devices, San Jose, CA, USA). […] The emitted fluorescence was measured at a wavelength of 510 nm after excitation at 488 nm. […] For each well, the decrease in the raw fluorescence as the relative fluorescence changed was calculated as ΔF/F0. Replicates were averaged for the wells subjected to the same stimuli, the background signal was subtracted, and the fluorescence changes in mock-transfected cells were subtracted. The half-maximal effective concentration (EC50) and maximal signal amplitude (max ∆F/F0) were calculated via non-linear regression of the sigmoidal function four-parameter logistic equation [f(x) = min + (max − min)/(1 + (x/EC50)^nH)] via SigmaPlot 15.0 software (Grafiti LLC, Palo Alto, CA, USA). […]

## N[C@@H](CCC(=O)N[C@@H](CS)C(=O)NCC(=O)O)C(=O)O [GSH, γ-L-glutamyl-L-cysteinyl-glycine]
[1]
  effect of 10 mM GSH on the response to sucralose: not increased
[2]
  effect of 10 mM GSH on the response to sucralose: unaffected
  EC50: 591 ± 344 µM

## OC[C@H]1O[C@H](O[C@]2(CCl)O[C@H](CCl)[C@@H](O)[C@@H]2O)[C@H](O)[C@@H](O)[C@H]1Cl [sucralose, reference compound]
[1]; sucralose alone, Fig. 4A
  EC50: 493 ± 114 µM
[2]
  EC50: 61 ± 2 µM
